The results in this text go back to patent US7202244B2, “Chk-1 inhibitors” (Millennium Pharmaceuticals, Inc., priority 2002, dated 2007).

Test [1] deals with T1, GST-Chk1 (recombinant human Chk1) (Homo sapiens, UniProt O14757).
T1 construct: made in house; host or cells: insect cells (Bac-to-Bac baculovirus system)
T1 sequence (O14757 1-476): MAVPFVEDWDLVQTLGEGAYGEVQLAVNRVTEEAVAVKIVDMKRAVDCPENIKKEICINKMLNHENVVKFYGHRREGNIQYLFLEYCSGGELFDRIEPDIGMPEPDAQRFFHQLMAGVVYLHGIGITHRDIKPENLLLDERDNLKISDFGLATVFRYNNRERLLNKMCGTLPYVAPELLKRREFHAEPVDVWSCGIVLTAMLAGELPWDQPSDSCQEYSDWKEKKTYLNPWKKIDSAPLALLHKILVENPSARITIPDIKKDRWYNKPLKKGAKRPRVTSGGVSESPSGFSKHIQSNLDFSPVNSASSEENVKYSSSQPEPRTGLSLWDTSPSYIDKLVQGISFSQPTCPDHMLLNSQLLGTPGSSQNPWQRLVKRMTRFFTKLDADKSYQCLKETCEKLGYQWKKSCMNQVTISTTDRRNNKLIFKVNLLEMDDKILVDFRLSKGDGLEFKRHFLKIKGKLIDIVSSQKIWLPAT
Kind of test: Chk1 FlashPlate kinase assay. The test is classed as biochemical. Particulars: 1 uM ATP. The method, then:
Recombinant human Chk1 was expressed as a fusion protein with glutathione S-transferase at the amino-terminus (GST-Chk1) using standard baculovirus vectors and (Bac-to-Bac®) insect cell expression system purchased from GIBCO™ Invitrogen. Recombinant protein expressed in insect cells was purified using glutathione sepharose (Amersham Biotech) using standard procedures described by the manufacturer.
Chk1 FlashPlate® Kinase Assay:
Reactions were incubated for 30 minutes at room temperature, terminated with 50 ul of 50 mM EDTA and 90 ul were transferred to streptavidin-coated FlashPlates® (NEN) and incubated for 1 hour at room temperature. Plates were washed with phosphate buffered salaine containing 0.01% Tween-20 and 10 mM sodium pyrophosphate. Plates were dried, sealed with Topseal™ (NEN) and amount of ^33P incorporated into the peptide substate measure using a Packard Topcount® NXT™ scintillation counter with standard settings.
Compounds of the present invention were tested in the Chk1 FlashPlate® kinase assay described above.

The subject of test [2] is HT29, HCT116 or other cells. The experiment in a line: WST assay: enhancement of cell killing by DNA damaging agents. The conditions noted are these: shift of 1 = no shift; for Shift 156 nM: Chk1 inhibitor fixed at 156 nM with DNA damaging agent titration; for Shift 313 nM: Chk1 inhibitor fixed at 313 nM with DNA damaging agent titration; for Shift 625 nM: Chk1 inhibitor fixed at 625 nM with DNA damaging agent titration; for Shift 1.25 μM: Chk1 inhibitor fixed at 1.25 μM with DNA damaging agent titration; for Shift 2.5 μM: Chk1 inhibitor fixed at 2.5 μM with DNA damaging agent titration. It is filed as cell-based. The method, then: HT29, HCT116 (5000 cells/well) or other cells were seeded (75 ul) to 96 well clear bottom plates at densities which provide linear growth curves for 72 hours. Cells were cultured under sterile conditions in appropriate media and for HT29 & HCT116 this media was McCoy's 5A containing 10% Fetal Bovine Serum (FBS). Following the initial seeding of cells they are incubated at 37° C., 5% CO2 from 17 to 24 hours at which time the appropriate DNA damaging agents (camptothecins, 5-fluorouracil and etoposid) are added at increasing concentrations to a point which is capable of causing at least 80% cell killing with in 48 hours. Final volume of all DNA damaging agent & compound additions was 25 ul and assays contained <1% DMSO final. At the same time as DNA Damaging agent addition, Chk1 inhibitor was added at fixed concentrations to each DNA damaging agent titration to observe enhancement of cell killing. In addition, toxicity of each Chk1 inhibitor alone was observed. By doing this over a range of Chk1 inhibitor concentrations we were able to identify compounds which maximally enhance (2–30 fold) cell killing by each DNA damaging agent and generated ≦80% cell killing by the compound alone. Cell viability/cell killing under the conditions described above was determined by addition WST reagent (Roche) according to the manufacturer at 47 hours following DNA damage & Chk1 inhibitor addition and following a 3.5 hour or 2.5 hour incubation at 37 C, 5% CO2, OD450 was measured.

For another test, the target named is T2, CHK-1 (Homo sapiens, UniProt O14757).
T2 sequence (O14757 1-476): T1 sequence (O14757 1-476)
Kind of test: IC50 for the test compound versus CHK-1 (Table 2, assay format not stated). It is filed as biochemical.

The structures appear in SMILES notation.

`Cc1cnc(NC(=O)Nc2cc(Cl)ccc2OCCCN(C)C)cn1` [Example 25, 1-[5-Chloro-2-(3-dimethylamino-propoxy)-phenyl]-3-(5-methyl-pyrazin-2-yl)-urea]: the IC50 in test [1] is less than 100 nM. In test [2], the “Shift 156 nM” value stood at 1.1, the “Shift 313 nM” value is listed as 1.7, the “Shift 625 nM” value is reported as 2.5 and the “Shift 1.25 μM” value is given as 3.3. For the same compound, in test [2], the “Shift 2.5 μM” value turned out to be 4.4. Further, on CHK-1, the IC50 amounted to 4.5 nM.

Consider `CN(C)CCCOc1ccc(Cl)cc1NC(=O)Nc1cnccn1` [Example 1, 1-[5-Chloro-2-(3-dimethylamino-propoxy)-phenyl]-3-pyrazin-2-yl-urea], for which, in test [1], the IC50 is less than 100 nM. Also, in test [2], the “Shift 156 nM” value is on record as 1, the “Shift 313 nM” value is 1.2, the “Shift 625 nM” value came out at 1.6 and the “Shift 1.25 μM” value turned out to be 2.2. In test [2], the “Shift 2.5 μM” value stood at 3.4. The IC50 on CHK-1 was determined as 3.5 nM.

For `CN(C)CCOc1ccc(Cl)cc1NC(=O)Nc1cnccn1` [Example 2, 1-[5-Chloro-2-(2-dimethylamino-ethoxy)-phenyl]-3-pyrazin-2-yl-urea], in test [1], the half-inhibitory concentration (IC50) is less than 100 nM. Besides, in test [2], the “Shift 156 nM” value was 1, the “Shift 313 nM” value is on record as 1.1, the “Shift 625 nM” value was found to be 1.5 and the “Shift 1.25 μM” value is given as 1.9. Further, the “Shift 2.5 μM” value in test [2] was 2.6. Further, at CHK-1, the IC50 stood at 8 nM.

The term IC50 denotes the point on the concentration scale where inhibition reaches its midpoint.
